# Results: ChEMBL document CHEMBL1136476, “Catechol-substituted L-chicoric acid analogues as HIV integrase inhibitors” (Bioorg Med Chem Lett, 2003)
# Target: Human immunodeficiency virus type 1 integrase (Human immunodeficiency virus 1, UniProt Q7ZJM1)
# Test: Inhibitory activity against HIV-1 integrase
# Chain of Human immunodeficiency virus type 1 integrase (Q7ZJM1 whole entry): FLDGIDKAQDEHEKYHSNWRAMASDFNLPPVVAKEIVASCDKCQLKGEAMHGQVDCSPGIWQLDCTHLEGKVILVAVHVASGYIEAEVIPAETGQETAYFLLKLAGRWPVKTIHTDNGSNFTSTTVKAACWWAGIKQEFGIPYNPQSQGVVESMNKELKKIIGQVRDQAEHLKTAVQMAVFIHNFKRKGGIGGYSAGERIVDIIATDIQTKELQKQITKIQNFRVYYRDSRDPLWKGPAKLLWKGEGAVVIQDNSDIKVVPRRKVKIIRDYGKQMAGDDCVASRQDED
row,SMILES,IC50
1,COc1ccc(CC(C(=O)O)C(Cc2ccc(OC)c(OC)c2)C(=O)O)cc1OC (stereo not given),> 150 µM
2,COc1ccc(C2=C(c3ccc(OC)c(OC)c3)C(=O)NC2=O)cc1OC,> 150 µM
3,COc1ccc(C(C(=O)O)C(C(=O)O)c2ccc(OC)c(OC)c2)cc1OC (stereo not given),> 150 µM
4,COc1ccc(C2=C(c3ccc(OC)c(OC)c3)C(=O)OC2=O)cc1OC,> 150 µM
5,COc1ccc(-c2c(C(=O)O)[nH]c(C(=O)O)c2-c2ccc(OC)c(OC)c2)cc1OC,> 150 µM
6,O=C(O)C(c1ccc(O)c(O)c1)C(C(=O)O)c1ccc(O)c(O)c1 (stereo not given),23.6 µM

# Compounds with a lower IC50, results first:
row,IC50,SMILES
1,19.1 µM,O=C(O)C(Cc1ccc(O)c(O)c1)C(Cc1ccc(O)c(O)c1)C(=O)O (stereo not given)
2,15.5 µM,O=C1NC(=O)C(c2ccc(O)c(O)c2)=C1c1ccc(O)c(O)c1
3,3.8 µM,O=C1OC(=O)C(c2ccc(O)c(O)c2)=C1c1ccc(O)c(O)c1
4,5.3 µM,O=C(O)c1[nH]c(C(=O)O)c(-c2ccc(O)c(O)c2)c1-c1ccc(O)c(O)c1
